The values below come from ChEMBL document CHEMBL3352422, “Imidazo[2,1-b]thiazole derivatives as new inhibitors of 15-lipoxygenase” (Eur J Med Chem, 2014).

The source made the active and inactive calls. No cut-off for these calls is given here.

Test system in the first series: not listed separately
Briefly: Inhibition of soybean 15-LOX incubated for 4 mins before linoleic acid substrate addition by spectrophotometry. Also noted: species or system Glycine max.
Details: not given
By IC50 is commonly meant the midpoint of a concentration-inhibition curve. Take `Brc1ccccc1-c1nc2scc(-c3ccccc3)n2c1NC1CCCCC1`: the IC50 entry is reported as “Not Active”.

Still in this series, the particulars now being: read-out: IC50.
As for `Clc1ccc(-c2nc3scc(-c4ccc(Br)cc4)n3c2NC2CCCCC2)cc1`, the 50% inhibitory concentration (IC50) is 52 µM.
As to `CC(C)(C)CC(C)(C)Nc1c(-c2ccccc2[N+](=O)[O-])nc2scc(-c3ccccc3)n12`, the half-inhibitory concentration (IC50) was 70 µM.
For `O=[N+]([O-])c1ccccc1-c1nc2scc(-c3ccc(Br)cc3)n2c1NC1CCCCC1`, the IC50 was 170 µM.
On to `CC(C)(C)CC(C)(C)Nc1c(-c2ccc(Cl)cc2)nc2scc(-c3ccc(Br)cc3)n12`, for which the IC50 stood at 20.7 µM.
On the same count and under the same terms, to `CC(C)(C)CC(C)(C)Nc1c(-c2ccc([N+](=O)[O-])cc2)nc2scc(-c3ccc(Br)cc3)n12` belongs 32 µM; to `COc1ccc(-c2csc3nc(-c4ccccc4)c(NC(C)(C)CC(C)(C)C)n23)cc1`, 11.5 µM; to `Fc1ccccc1-c1nc2scc(-c3ccccc3)n2c1NC1CCCCC1`, 35.4 µM.
For the compound `O=[N+]([O-])c1ccc(-c2nc3scc(-c4ccccc4)n3c2NC2CCCCC2)cc1`, the IC50 stood at 737 µM.
`CC(C)(C)Nc1c(-c2ccc(Cl)cc2)nc2scc(-c3ccccc3)n12`: the IC50 turned out to be 33 µM.
Same read-out and setting: to `O=c1c(O)c(-c2ccc(O)c(O)c2)oc2cc(O)cc(O)c12` [QUERCETIN] belongs 23 µM; to `CC(C)(C)Nc1c(-c2ccc([N+](=O)[O-])cc2)nc2scc(-c3ccccc3)n12`, 45 µM; to `Cc1ccc(-c2nc3scc(-c4ccccc4)n3c2NC(C)(C)C)cc1`, 35 µM.
Turning to `COc1ccc(-c2nc3scc(-c4ccccc4)n3c2NC(C)(C)C)cc1`, the 50% inhibitory concentration (IC50) stood at 58 µM.
The same measure, in the same setting: to `COc1ccc(-c2nc3scc(-c4ccccc4)n3c2NC2CCCCC2)cc1` belongs 765 µM.

Test system in another series: not listed separately
Briefly: Toxicity in rat PC12 cells at 1 to 10 uM after 24 hrs by MTT assay. The settings on record: pc-12, 24 h. Type of series: cell-based. Background: Tetrazolium dyes change colour on reduction, which living cells bring about.
Turning to `COc1ccc(-c2csc3nc(-c4ccccc4)c(NC(C)(C)CC(C)(C)C)n23)cc1`, the Activity entry is “Non-toxic”.

For the next series, the system named is PC-12. Briefly: Cytoprotective activity against rat PC12 cells assessed as protection against H2O2-induced cell death at 1 to 10 uM pre-treated 3 hrs before H2O2 addition and measured 24 hrs post H2O2 challenge by MTT assay.
Details: not given
Format: functional, cell-based.
On to `COc1ccc(-c2csc3nc(-c4ccccc4)c(NC(C)(C)CC(C)(C)C)n23)cc1`, for which the result was Active.
